This is an account of results in US12410175B2, “Compounds” (INTRA-CELLULAR THERAPIES, INC., priority 2019, dated 2025).

One data set addresses T1, PDE1A (Homo sapiens, UniProt P54750).
T1 construct: recombinant full length human PDEl A and PDE1B; made in house; host or cells: HEK or SF9 cells
In words: IMAP phosphodiesterase assay, PDE1A. The format is biochemical. The following applies: PDE Target PDE1A.

For the next data set, the target named is hPDE10A (Homo sapiens, UniProt Q9Y233). In words: PDE selectivity assay, hPDE10A. The format is biochemical. The following applies: PDE Target hPDE10A.
The target of the next data set is hPDE3B (Homo sapiens, UniProt Q13370). In words: PDE selectivity assay, hPDE3B. The format is biochemical. The following applies: PDE Target hPDE3B.
Another data set has as its target hPDE4A1A (Homo sapiens, UniProt P27815). In words: PDE selectivity assay, hPDE4A1A. The format is biochemical. The conditions noted are these: PDE Target hPDE4A1A.
The target in the next data set is T2, PDE1B (Homo sapiens, UniProt Q01064).
T2 construct: recombinant full length human PDEl A and PDE1B; made in house; host or cells: HEK or SF9 cells
In words: IMAP phosphodiesterase assay, PDE1B. Type of data set: biochemical. The following applies: PDE Target PDE1B. From the text: Measurement of PDEIB Inhibition In Vitro Using IMAP Phosphodiesterase Assay Kit
Phosphodiesterase I B (PDEIB) is a calcium/calmodulin dependent phosphodiesterase enzyme that converts cyclic guanosine monophosphate (cGMP) to 5′-guanosine monophosphate (5′-GMP). PDEIB can also convert a modified cGMP substrate, such as the fluorescent molecule cGMP-fluorescein, to the corresponding GMP-fluorescein. The generation of GMP-fluorescein from cGMP-fluorescein can be quantitated, using, for example, the IMAP (Molecular Devices, Sunnyvale, CA) immobilized-metal affinity particle reagent.
Briefly, the IMAP reagent binds with high affinity to the free 5′-phosphate that is found in GMP-fluorescein and not in cGMP-fluorescein. The resulting GMP-fluorescein-IMAP complex is large relative to cGMP-fluorescein. Small fluorophores that are bound up in a large, slowly tumbling, complex can be distinguished from unbound fluorophores, because the photons emitted as they fluoresce retain the same polarity as the photons used to excite the fluorescence.
In the phosphodiesterase assay, cGMP-fluorescein, which cannot be bound to IMAP, and therefore retains little fluorescence polarization, is converted to GMP-fluorescein, which, when bound to IMAP, yields a large increase in fluorescence polarization (Amp). Inhibition of phosphodiesterase, therefore, is detected as a decrease in Amp.
Materials: All chemicals are available from Sigma-Aldrich (St. Louis, MO) except for IMAP reagents (reaction buffer, binding buffer, FL-GMP and IMAP beads), which are available from Molecular Devices (Sunnyvale, CA). […]
The FL-GMP conversion reaction is initiated by combining 4 parts enzyme and inhibitor mix with 1 part substrate solution (0.225 μM) in a 384-well microtiter plate. […] The plate is incubated at room temperature for 1 hour to allow IMAP binding to proceed to completion, and then placed in an Envision multimode microplate reader (PerkinElmer, Shelton, CT) to measure the fluorescence polarization (Amp).
A decrease in GMP concentration, measured as decreased Amp, is indicative of inhibition of PDE activity.

Another data set addresses hPDE11 (Homo sapiens, UniProt Q9HCR9). In words: PDE selectivity assay, hPDE11. The format is biochemical. The following applies: PDE Target hPDE11.
In the next data set the target is hPDE2A (Homo sapiens, UniProt O00408). In words: PDE selectivity assay, hPDE2A. Type of data set: biochemical. The conditions noted are these: PDE Target hPDE2A.
The next data set addresses r-bovine PDE5 (Bos taurus, UniProt Q28156). In words: PDE selectivity assay, r-bovine PDE5. The conditions noted are these: PDE Target r-bovine PDE5. Type of data set: biochemical.
The target in the next data set is hPDE7B (Homo sapiens, UniProt Q9NP56). In words: PDE selectivity assay, hPDE7B. The format is biochemical. The following applies: PDE Target hPDE7B.
A further data set concerns the target hPDE8A (Homo sapiens, UniProt O60658). In words: PDE selectivity assay, hPDE8A. Type of data set: biochemical. The conditions noted are these: PDE Target hPDE8A.
The target in a further data set is hPDE9A (Homo sapiens, UniProt O76083). In words: PDE selectivity assay, hPDE9A. The format is biochemical. The following applies: PDE Target hPDE9A.
Another data set has as its target PDE1C (Homo sapiens, UniProt Q14123). In words: IMAP phosphodiesterase assay, PDE1C. The format is biochemical. The conditions noted are these: PDE Target PDE1C.
For a further data set, the target named is T3, bovine PDE6 (Bos taurus, UniProt P11541+P23439).
T3 sequence (P11541 2-856 limits assumed): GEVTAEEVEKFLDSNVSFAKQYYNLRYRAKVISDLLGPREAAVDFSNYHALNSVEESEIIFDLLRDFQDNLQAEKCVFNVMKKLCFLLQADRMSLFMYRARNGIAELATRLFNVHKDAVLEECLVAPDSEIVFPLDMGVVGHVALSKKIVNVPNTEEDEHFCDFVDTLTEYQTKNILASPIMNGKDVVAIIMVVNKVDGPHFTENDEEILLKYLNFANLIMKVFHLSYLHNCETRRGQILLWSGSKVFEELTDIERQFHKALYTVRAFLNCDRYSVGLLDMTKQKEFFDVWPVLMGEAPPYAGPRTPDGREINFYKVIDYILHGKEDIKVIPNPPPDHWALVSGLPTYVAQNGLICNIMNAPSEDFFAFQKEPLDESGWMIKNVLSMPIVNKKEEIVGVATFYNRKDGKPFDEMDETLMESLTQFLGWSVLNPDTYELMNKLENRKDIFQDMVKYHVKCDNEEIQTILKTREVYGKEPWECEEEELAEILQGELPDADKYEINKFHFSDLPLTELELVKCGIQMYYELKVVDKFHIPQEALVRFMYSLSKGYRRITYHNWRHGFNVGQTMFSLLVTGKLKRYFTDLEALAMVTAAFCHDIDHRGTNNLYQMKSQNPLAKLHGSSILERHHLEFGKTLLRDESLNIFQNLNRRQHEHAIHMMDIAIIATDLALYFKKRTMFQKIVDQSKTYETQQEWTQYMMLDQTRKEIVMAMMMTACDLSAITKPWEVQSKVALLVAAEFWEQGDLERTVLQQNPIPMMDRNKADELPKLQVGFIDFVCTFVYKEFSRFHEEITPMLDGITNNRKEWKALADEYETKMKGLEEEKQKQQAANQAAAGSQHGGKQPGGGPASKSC
T3 sequence (P23439 2-850 limits assumed): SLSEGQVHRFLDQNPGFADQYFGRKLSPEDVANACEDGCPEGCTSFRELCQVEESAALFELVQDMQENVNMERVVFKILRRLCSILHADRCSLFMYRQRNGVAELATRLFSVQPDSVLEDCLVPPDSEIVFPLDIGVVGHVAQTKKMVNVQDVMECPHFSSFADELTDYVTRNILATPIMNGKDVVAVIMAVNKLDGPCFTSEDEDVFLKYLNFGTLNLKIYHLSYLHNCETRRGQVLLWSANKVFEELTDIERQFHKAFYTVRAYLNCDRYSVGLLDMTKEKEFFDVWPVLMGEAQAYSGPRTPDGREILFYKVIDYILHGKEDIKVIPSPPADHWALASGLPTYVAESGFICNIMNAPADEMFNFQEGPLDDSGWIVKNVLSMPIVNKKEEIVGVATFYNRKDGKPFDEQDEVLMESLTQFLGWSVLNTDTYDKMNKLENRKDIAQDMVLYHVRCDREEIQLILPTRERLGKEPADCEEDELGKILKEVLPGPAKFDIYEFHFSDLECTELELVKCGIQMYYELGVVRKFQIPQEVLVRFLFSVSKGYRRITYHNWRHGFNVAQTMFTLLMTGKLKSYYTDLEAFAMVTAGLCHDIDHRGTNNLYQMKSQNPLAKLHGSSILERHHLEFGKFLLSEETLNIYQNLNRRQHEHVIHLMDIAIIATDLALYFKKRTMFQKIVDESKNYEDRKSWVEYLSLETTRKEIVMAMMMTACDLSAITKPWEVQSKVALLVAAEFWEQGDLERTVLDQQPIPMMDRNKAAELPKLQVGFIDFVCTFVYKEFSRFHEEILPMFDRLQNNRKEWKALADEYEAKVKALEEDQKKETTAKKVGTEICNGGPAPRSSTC
In words: PDE selectivity assay, bovine PDE6. Type of data set: biochemical. The following applies: PDE Target bovine PDE6.

Data set [1] can be described thus: Circulating metabolites in human plasma after oral administration of Compound 1. The format is in vivo. The conditions noted are these: after oral administration of Compound 1 (parent).

The term IC50 denotes the concentration at which inhibition is half-maximal. A higher IC50 goes with weaker potency.

Molecules are shown by their SMILES.

hPDE10A, sequence (Q9Y233 whole entry): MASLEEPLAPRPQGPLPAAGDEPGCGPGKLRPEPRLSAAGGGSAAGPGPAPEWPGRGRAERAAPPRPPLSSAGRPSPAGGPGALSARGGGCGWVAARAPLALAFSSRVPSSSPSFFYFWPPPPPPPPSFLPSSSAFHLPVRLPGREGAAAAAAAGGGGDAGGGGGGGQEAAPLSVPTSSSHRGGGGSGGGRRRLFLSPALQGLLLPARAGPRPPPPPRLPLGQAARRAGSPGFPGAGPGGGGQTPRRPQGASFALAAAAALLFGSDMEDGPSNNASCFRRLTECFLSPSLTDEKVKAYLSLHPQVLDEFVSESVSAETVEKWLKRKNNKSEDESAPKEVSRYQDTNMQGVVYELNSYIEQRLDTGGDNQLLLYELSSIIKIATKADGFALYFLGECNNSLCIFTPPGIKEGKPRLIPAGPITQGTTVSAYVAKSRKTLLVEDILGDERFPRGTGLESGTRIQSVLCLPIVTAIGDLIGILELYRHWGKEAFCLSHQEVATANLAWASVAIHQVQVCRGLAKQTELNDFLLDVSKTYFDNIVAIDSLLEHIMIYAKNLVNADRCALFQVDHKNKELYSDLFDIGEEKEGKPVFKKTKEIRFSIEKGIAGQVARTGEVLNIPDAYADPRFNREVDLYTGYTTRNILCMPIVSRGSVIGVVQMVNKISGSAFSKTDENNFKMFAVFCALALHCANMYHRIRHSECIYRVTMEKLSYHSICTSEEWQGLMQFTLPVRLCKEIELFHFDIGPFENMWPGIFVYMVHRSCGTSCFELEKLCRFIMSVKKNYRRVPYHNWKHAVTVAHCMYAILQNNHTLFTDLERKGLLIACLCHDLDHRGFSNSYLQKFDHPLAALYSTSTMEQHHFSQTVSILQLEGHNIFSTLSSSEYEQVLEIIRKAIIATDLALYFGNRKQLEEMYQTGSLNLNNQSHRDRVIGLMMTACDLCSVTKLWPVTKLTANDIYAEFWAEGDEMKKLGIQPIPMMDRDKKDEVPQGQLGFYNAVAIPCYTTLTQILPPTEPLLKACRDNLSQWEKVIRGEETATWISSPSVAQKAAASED
hPDE4A1A, sequence (P27815 1-647 isoform P27815-4): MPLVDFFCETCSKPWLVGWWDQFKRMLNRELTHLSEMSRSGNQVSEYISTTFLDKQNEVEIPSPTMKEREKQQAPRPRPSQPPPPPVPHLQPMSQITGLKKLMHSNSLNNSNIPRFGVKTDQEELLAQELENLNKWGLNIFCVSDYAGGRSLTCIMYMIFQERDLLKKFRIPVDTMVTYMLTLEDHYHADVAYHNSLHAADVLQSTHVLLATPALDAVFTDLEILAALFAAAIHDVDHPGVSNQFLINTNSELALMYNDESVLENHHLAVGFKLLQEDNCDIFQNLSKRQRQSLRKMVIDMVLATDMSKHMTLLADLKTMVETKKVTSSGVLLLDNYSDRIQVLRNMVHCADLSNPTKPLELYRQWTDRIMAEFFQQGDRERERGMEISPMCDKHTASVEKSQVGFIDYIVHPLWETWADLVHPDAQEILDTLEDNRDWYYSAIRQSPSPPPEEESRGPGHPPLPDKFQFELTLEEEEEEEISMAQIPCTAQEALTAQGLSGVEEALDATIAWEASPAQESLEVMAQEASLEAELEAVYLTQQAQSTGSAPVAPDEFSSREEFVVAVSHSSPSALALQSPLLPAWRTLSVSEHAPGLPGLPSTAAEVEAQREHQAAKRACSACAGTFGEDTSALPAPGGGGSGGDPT
hPDE8A, sequence (O60658 whole entry): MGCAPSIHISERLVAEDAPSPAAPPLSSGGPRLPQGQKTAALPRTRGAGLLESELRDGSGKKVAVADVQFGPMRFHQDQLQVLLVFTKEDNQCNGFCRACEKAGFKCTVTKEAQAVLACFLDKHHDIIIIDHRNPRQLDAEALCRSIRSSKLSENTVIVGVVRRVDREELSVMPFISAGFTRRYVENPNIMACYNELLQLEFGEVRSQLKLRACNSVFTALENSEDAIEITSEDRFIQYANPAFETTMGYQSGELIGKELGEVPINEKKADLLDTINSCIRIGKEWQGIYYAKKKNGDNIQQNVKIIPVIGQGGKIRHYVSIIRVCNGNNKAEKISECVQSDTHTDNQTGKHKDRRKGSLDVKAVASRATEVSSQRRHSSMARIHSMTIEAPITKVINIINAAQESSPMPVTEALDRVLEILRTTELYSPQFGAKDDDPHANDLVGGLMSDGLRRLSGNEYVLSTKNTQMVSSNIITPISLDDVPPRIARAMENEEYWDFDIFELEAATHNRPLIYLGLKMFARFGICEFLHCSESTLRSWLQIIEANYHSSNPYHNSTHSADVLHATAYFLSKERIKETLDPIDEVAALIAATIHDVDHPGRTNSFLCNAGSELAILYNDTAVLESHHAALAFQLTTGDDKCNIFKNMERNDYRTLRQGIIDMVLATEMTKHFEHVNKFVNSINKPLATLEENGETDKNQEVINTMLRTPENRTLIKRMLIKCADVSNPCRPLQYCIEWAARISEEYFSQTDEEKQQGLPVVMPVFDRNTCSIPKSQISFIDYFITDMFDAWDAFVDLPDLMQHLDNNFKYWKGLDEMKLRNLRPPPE
hPDE7B, sequence (Q9NP56 whole entry): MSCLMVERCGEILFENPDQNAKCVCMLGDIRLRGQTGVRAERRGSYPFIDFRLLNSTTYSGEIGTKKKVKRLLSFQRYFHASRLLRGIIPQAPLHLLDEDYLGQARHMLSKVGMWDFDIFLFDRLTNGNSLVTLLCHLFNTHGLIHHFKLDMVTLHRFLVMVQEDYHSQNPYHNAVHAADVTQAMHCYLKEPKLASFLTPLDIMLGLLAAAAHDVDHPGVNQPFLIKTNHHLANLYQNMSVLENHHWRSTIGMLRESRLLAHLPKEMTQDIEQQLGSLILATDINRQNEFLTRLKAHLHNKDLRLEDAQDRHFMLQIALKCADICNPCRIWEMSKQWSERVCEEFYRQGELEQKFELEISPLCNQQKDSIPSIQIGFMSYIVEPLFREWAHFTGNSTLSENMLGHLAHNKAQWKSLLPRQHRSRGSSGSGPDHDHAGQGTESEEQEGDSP
hPDE9A, sequence (O76083 whole entry): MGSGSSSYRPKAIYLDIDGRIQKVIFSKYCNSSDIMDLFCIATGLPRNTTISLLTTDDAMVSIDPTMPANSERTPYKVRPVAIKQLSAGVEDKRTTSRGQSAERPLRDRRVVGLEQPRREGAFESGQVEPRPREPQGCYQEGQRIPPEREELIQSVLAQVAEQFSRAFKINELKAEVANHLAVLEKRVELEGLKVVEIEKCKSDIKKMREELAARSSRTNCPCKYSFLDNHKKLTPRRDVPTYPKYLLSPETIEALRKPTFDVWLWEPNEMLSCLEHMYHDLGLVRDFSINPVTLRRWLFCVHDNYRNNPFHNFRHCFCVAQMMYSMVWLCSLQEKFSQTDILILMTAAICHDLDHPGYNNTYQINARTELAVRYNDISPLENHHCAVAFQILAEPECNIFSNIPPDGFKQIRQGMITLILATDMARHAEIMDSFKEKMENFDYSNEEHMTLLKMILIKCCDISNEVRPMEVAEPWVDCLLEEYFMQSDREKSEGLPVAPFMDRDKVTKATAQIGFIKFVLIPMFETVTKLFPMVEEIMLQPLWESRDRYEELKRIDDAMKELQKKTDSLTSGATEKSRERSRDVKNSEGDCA
hPDE3B, sequence (Q13370 whole entry): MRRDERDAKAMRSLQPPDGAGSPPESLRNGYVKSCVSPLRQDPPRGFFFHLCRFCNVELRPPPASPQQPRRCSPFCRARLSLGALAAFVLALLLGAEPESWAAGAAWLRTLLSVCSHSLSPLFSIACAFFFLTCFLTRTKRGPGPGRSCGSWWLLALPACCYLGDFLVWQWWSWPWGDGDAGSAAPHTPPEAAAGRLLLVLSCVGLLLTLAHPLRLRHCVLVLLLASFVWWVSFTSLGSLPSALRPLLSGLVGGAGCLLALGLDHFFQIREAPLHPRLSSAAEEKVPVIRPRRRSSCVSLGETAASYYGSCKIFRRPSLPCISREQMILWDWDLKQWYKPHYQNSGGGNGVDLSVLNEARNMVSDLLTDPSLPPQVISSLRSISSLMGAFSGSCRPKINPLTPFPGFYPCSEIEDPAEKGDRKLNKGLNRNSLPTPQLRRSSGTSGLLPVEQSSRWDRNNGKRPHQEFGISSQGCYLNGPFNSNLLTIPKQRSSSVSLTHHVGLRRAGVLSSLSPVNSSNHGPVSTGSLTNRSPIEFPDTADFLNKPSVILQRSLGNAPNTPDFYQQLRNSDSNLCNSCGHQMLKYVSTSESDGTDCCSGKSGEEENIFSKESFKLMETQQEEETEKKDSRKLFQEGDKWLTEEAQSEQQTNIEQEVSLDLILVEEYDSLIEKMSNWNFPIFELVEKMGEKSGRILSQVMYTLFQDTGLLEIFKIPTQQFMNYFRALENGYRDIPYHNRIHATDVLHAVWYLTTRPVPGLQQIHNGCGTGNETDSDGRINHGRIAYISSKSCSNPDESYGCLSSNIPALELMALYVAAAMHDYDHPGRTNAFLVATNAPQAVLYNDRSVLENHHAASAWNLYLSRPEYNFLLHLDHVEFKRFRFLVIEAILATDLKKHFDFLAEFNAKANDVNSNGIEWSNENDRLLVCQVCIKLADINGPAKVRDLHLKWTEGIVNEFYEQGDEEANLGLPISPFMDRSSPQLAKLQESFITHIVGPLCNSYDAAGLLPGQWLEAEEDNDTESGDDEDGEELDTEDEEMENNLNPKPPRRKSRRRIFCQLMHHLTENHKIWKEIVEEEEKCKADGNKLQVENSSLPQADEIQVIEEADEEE

For the molecule `CN1C(=O)c2c(nn(Cc3ccc(-c4cccc(F)n4)cc3)c2Nc2ccc(O)cc2)N2C1=N[C@]1(O)CCC[C@H]21` [Compound 3], the IC50 on PDE1A stood at 6.3 nM; on hPDE10A, 67400 nM; at hPDE3B, 20900 nM; at hPDE4A1A, 840 nM; at PDE1B it was 1.4 nM; at hPDE11, 396 nM. Also, the IC50 against hPDE2A is 73400 nM; on r-bovine PDE5 it was 156 nM; on hPDE7B, 1240 nM; at hPDE8A, 3420 nM; at hPDE9A, above 100000 nM; at PDE1C, 5.4 nM. Besides, the IC50 at bovine PDE6 is 294 nM.
Take `CN1C(=O)c2c(nn(Cc3ccc(-c4cccc(F)n4)cc3)c2Nc2ccccc2)N2C1=N[C@]1(O)CCC[C@H]21` [Compound 2]: the IC50 on PDE1A is 0.042 nM; at hPDE10A, above 10000 nM; on hPDE3B it was around 10000 nM; against hPDE4A1A, 22 nM; against PDE1B, 0.015 nM; at hPDE11 it was 454 nM. Besides, the IC50 against hPDE2A was around 10000 nM; against r-bovine PDE5, 3.1 nM; at hPDE7B it was 118 nM; on hPDE8A, 418 nM; at hPDE9A, above 10000 nM; on PDE1C it was 0.042 nM. Moreover, on bovine PDE6, half-maximal inhibition (IC50) required 34 nM.
As to `CN1C(=O)c2c(nn(Cc3ccc(-c4cccc(F)n4)cc3)c2Nc2ccccc2)N2C1=N[C@]1(O)CCC[C@H]21` [M-I], the “share of the total circulating drug related materials in human plasma” value in data set [1] is reported as 84%.
With `CN1C(=O)c2c(nn(Cc3ccc(-c4cccc(F)n4)cc3)c2Nc2ccc(O)cc2)N2C1=N[C@@H]1CCC[C@@H]12` [Compound 1], the IC50 against PDE1A was 1.3 nM; on hPDE10A it was above 100000 nM; against hPDE3B, 49700 nM; against hPDE4A1A, 3660 nM; against PDE1B, 29 nM; at hPDE11 it was 5440 nM. The IC50 at hPDE2A is above 100000 nM; against r-bovine PDE5 it was 2480 nM; on hPDE7B it was 6610 nM; against hPDE8A, 4170 nM; against hPDE9A it was above 100000 nM; at PDE1C it was 1.3 nM. Further, on bovine PDE6, the IC50 was determined as 4340 nM.
